From paper PMC6199744, “Development of Chemical Proteomics for the Folateome and Analysis of the Kinetoplastid Folateome” (ACS Infectious Diseases, 2018)
Several values for one entry are separate records, joined by “and”; a condition that tells them apart may be missing. Equal values may be shown once. Read-outs that look alike come from different tables or passages of the source.

System: L. major lysate proteins
Assay: Multitargeted bead mixture chemoproteomics, single concentration competition, proteome-wide
Assay type: binding
Conditions: for fold change: vehicle control = 1

## Nc1nc2[nH]cc(CCc3ccc(C(=O)N[C@@H](CCC(=O)O)C(=O)O)cc3)c2c(=O)[nH]1 [PTX, pemetrexed]
  fold change relative to vehicle control: 1.01 and 1.04 and 0.91
  fold change vs vehicle control: 1.03 and 1.04 and 1
Protein CLI00016468.1 KIN[…] PROTEIN-11
  fold change vs vehicle control: 0.68
Protein LINJ.03.0240 RIBOSOMAL PROTEIN L38, PUTATIVE
  fold change vs vehicle control: 1.03
Protein LINJ.11.0780 40S RIBOSOMAL PROTEIN S21, PUTATIVE
  fold change vs vehicle control: 0.99
Protein LINJ.11.0960 40S RIBOSOMAL PROTEIN S5
  fold change: 1.07
Protein LINJ.13.0990 […] SUBUNIT 2, PUTATIVE
  fold change vs vehicle control: 1.06
Protein LINJ.15.0330 RIBONUCLEOPROTEIN P18, MIT[…], PUTATIVE
  fold change vs vehicle control: 1.08
Protein LINJ.19.0090 FIBRILLARIN, PUTATIVE
  fold change: 0.88
Protein LINJ.21.1790 40S RIBOSOMAL PROTEIN S11, PUTATIVE
  fold change: 1.08
Protein LINJ.23.0860, 3-KETOACYL-COA THIOLASE, PUTATIVE
  fold change relative to vehicle control: 1.16
Protein LINJ.24.2300, 60S RIBOSOMAL PROTEIN L12, PUTATIVE
  fold change relative to vehicle control: 0.96
Protein LINJ.25.2230 SUCCINYL-COA […] SUBUNIT, PUTATIVE
  fold change vs vehicle control: 0.97
Protein LINJ.26.1630 40S RIBOSOMAL PROTEIN S33, PUTATIVE
  fold change vs vehicle control: 0.99
Protein LINJ.28.1100 RIBOSOMAL PROTEIN S20, PUTATIVE
  fold change vs vehicle control: 0.99
Protein LINJ.28.1940, R[…] A, 51KDA SUBUNIT, PUTATIVE
  fold change relative to vehicle control: 0.99
Protein LINJ.28.2280 DYNEIN LIGHT CHAIN LC6, FLAGELLAR OUTER ARM, PUTATIVE
  fold change: 0.87
Protein LINJ.28.2870 PROTEIN PHOSPHATASE 4 CATALYTIC SUBUNIT, PUTATIVE
  fold change: 0.97
Protein LINJ.31.1600, CYTOCHROME C OXIDASE VIII (COX VIII), PUTATIVE
  fold change relative to vehicle control: 0.89
Protein LINJ.33.1730, CYCLOPHILIN 4, PUTATIVE
  fold change relative to vehicle control: 1.47
Protein LINJ.34.0670 […]-ATP-ASE SUBUNIT 11, PUTATIVE,19S […]
  fold change vs vehicle control: 0.91
Protein LINJ.36.0780 PROTEIN KINASE, PUTATIVE,MITOGEN-ACTIVATED PROTEIN KINASE, PUTATIVE
  fold change vs vehicle control: 0.92
Protein LINJ.36.3960, BASIC TRANSCRIPTION FACTOR 3A, PUTATIVE
  fold change relative to vehicle control: 1.33
Protein LINJ.36.4080, HY[…], CONSERVED
  fold change relative to vehicle control: 0.93
Protein LINJ.36.4180 HS1VU COMPLEX P[…]-LIKE
  fold change: 0.92
Protein LINJ.[…] LONG-CHAIN-FATTY-ACID-COA LIGASE, PUTATIVE
  fold change vs vehicle control: 0.9
Protein LMJF.01.0570 TRICARBOXYLATE CARRIER, PUTATIVE
  fold change: 0.96
Protein LMJF.03.0200, DELTA-1-PYRROLINE-5-CARBOXYLATE DEHYDROGENASE, PUTATIVE
  fold change relative to vehicle control: 1.03
Protein LMJF.03.0230 LONG CHAIN FATTY ACYL COA SYNTHETASE, PUTATIVE
  fold change: 0.99
Protein LMJF.03.0980 […] 2 ALPHA SUBUNIT, PUTATIVE
  fold change: 0.97
Protein LMJF.04.0630 HY[…], CONSERVED
  fold change vs vehicle control: 0.99
Protein LMJF.04.1230 actin
  fold change vs vehicle control: 1
Protein LMJF.05.0100 PHOSPHOPROTEIN PHOSPHATASE, PUTATIVE
  fold change: 0.71
Protein LMJF.05.0280 PROTEIN TYROSINE PHOSPHATASE, PUTATIVE
  fold change: 0.88
Protein LMJF.05.0510 ATPASE ALPHA SUBUNIT
  fold change: 1.05
Protein LMJF.05.1040 STOMATIN-LIKE PROTEIN
  fold change: 0.94
Protein LMJF.06.0650 […], PUTATIVE
  fold change: 0.89
Protein LMJF.07.0700 TOPOISOMERASE-RELATED FUNCTION PROTEIN-LIKE PROTEIN
  fold change vs vehicle control: 0.73
Protein LMJF.07.1000 RNA BINDING PROTEIN-LIKE PROTEIN
  fold change: 0.93
Protein LMJF.07.1140, PEPTIDE […] REDUCTASE-LIKE
  fold change relative to vehicle control: 1.13
Protein LMJF.08.0510 RIBOSE-PHOSPHATE PYROPHOSPHOKINASE, PUTATIVE
  fold change: 0.89
Protein LMJF.08.0550 T[…]-LIKE PROTEIN
  fold change vs vehicle control: 0.98
Protein LMJF.08.1030, cathepsin L-like protease
  fold change relative to vehicle control: 1.04
Protein LMJF.08.1100 HY[…], CONSERVED
  fold change vs vehicle control: 0.92
Protein LMJF.09.1010 HY[…], CONSERVED
  fold change vs vehicle control: 0.89
Protein LMJF.09.1120, MIT[…] BINDING PROTEIN 2,MRP2, GBP25
  fold change relative to vehicle control: 1
Protein LMJF.09.1260 HY[…], CONSERVED
  fold change vs vehicle control: 0.97
Protein LMJF.10.0210 NUCLEOLAR PROTEIN, PUTATIVE
  fold change: 0.99
Protein LMJF.10.0310 PROTEIN TRANSPORT PROTEIN SEC23, PUTATIVE
  fold change vs vehicle control: 1.04
Protein LMJF.11.0590 3-METHYLCROTONOYL-COA C[…] SUBUNIT, PUTATIVE
  fold change: 0.95
Protein LMJF.11.0630, AMINOPEPTIDASE, PUTATIVE,METALLO-PEPTIDASE, CLAN MF, FAMILY M17
  fold change relative to vehicle control: 1.06
Protein LMJF.11.1050 PRETRA[…], ALPHA SUBUNIT, PUTATIVE,SEC61-LIKE (PRETRA[…]) PROTEIN, PUTATIVE
  fold change vs vehicle control: 0.96
Protein LMJF.11.1160 PROTEIN TRANSPORT PROTEIN SEC31, PUTATIVE
  fold change: 0.76
Protein LMJF.12.0030 […]-1 SUBUNIT, PUTATIVE
  fold change: 0.94
Protein LMJF.12.0210 […] SUBUNITTCC1L8 3, PUTATIVE
  fold change vs vehicle control: 0.96
Protein LMJF.12.0530, GLUCOSE-6-PHOSPHATE ISOMERASE
  fold change relative to vehicle control: 1.26
Protein LMJF.12.0630 ALANINE AMINOTRANSFERASE
  fold change: 0.86
Protein LMJF.13.1230 40S RIBOSOMAL PROTEIN S4, PUTATIVE
  fold change vs vehicle control: 1.13
Protein LMJF.14.0310 […] 3 SUBUNIT, PUTATIVE
  fold change vs vehicle control: 1.03
Protein LMJF.14.0660 FATTY ACID ELONGASE, PUTATIVE
  fold change: 0.92
Protein LMJF.14.0670 FATTY ACID ELONGASE, PUTATIVE
  fold change: 0.87
Protein LMJF.14.0680 FATTY ACID ELONGASE, PUTATIVE
  fold change vs vehicle control: 1.08
Protein LMJF.14.0990 ADP/ATP MIT[…]-LIKE PROTEIN
  fold change: 1.14
Protein LMJF.14.1160 ENOLASE
  fold change vs vehicle control: 1.01
Protein LMJF.14.1440 HY[…], CONSERVED (cytoskeleton associated protein, putative)
  fold change: 0.74
